Data on five molecules can be found in paper PMC5382548 (Scientific Reports, 2015).

Test [1] has as its system HEK293T (embryonic kidney). Kind of test: MTS short-term cytotoxicity assay, HEK293T. The class given is cell-based. As to conditions: Homo sapiens, HEK-293T, 72 h, read-out: IC50 HEK293T. How it is done: (§1) Short-term anti-proliferative assays were carried out by two different assays using a panel of human cancer and non-malignant human cell lines. […] The transformed human embryonic kidney cell line HEK293T (wt KRAS) was sensitive to all tested drugs, including TMPyP4, a cationic porphyrin established as a G4 ligand, as well as the anticancer drug 5-fluorouracil (5-FU).
HCT116 human colon carcinoma cells, SW620 human colorectal adenocarcinoma and HEK293 T human embryonic kidney cells were grown in Dulbecco's modified Eagle's medium (DMEM) supplemented with 10% fetal bovine serum, and 1% antibiotic/antimycotic (Invitrogen, Grand Island, NY, USA) and maintained at 37°C in a humidified atmosphere of 5% CO2. Cells were seeded in 96 well plates at 5.000 cells/well. Twenty-four hours after cell plating, media was removed and replaced with fresh media containing test compounds and 5-FU (Sigma), a common cytotoxic agent used in colon cancer treatmen, or vehicle control (DMSO). Following 72 h of compound exposure, cell viability was evaluated using the CellTiter 96 AQueous Non-Radioactive Cell Proliferation Assay (Promega, Madison, WI, USA), using 3-(4,5-dimethylthiazol-2-yl)-5-(3-carboxymethoxyphenyl)-2-(4-sulfophenyl)-2H-tetrazolium, inner salt (MTS) as previously described. Cell viability data were expressed as mean ± SEM or mean ± SD from at least three independent experiments. IC50 and IC65 values were determined using GaphPad Prism v.5.00 (GraphPad Software). (Performed at Cell Function and Therapeutic Targeting Group, iMed.ULisboa)

Test [2] has as its system MCF7 (breast). As to the kind of experiment: SRB short-term cytotoxicity assay, MCF7. As to conditions: Homo sapiens, 96 h. The class given is cell-based. How it is done:
as §1
(§2) Human cell lines, breast carcinoma (MCF7), lung carcinoma (A549), pancreatic cancer (MIA PaCa2, Panc-1), immortalised telomerase-negative human lung fibroblast (ALT) and normal human lung fibroblast (WI-38), were all purchased from American Type Cell Culture (ATCC). Cell lines were maintained in appropriate medium supplemented with 10% fetal bovine serum (Invitrogen, UK), 2 mM L-glutamine (Invitrogen, Netherlands), and other components as specified by the suppliers. All cell lines were maintained at 37°C, 5% CO2, and routinely passaged. Short-term growth inhibition was measured using the SRB assay as described previously[43] (additional details described in Supplementary Information). […]
(§3) Sulforhodamine B (SRB) short-term cytotoxicity assay
(§4) Cells were seeded at appropriate densities into the wells of 96 well plates in their corresponding medium and incubated overnight to allow the cells to attach. Subsequently cells were exposed to various concentrations of freshly made solutions of drugs and incubated for 96 h. The cells were subsequently fixed with ice-cold trichloacetic acid (TCA) (10%, w/v) for 30 min and stained with 0.4% SRB dissolved in 1% acetic acid for 15 min.
All incubations were carried out at room temperature except for TCA fixation, which was at 4 °C. […]
After electrophoretic transfer onto nitrocellulose membranes, immunoblots were blocked with 5% milk solution, and next incubated overnight at 4 °C with primary mouse monoclonal antibody reactive to KRAS/p53 (#sc-30/sc-126; Santa Cruz Biotechnology Inc., Santa Cruz, CA, USA). […] Steady-state protein levels were expressed as mean ±SEM from at least three independent experiments.

The subject of test [3] is KRAS21R (FRET-labelled) (DNA, G4) AGGGCGGTGTGGGAAGAGGGA
Kind of test: FRET melting. As to conditions: 60 mM K+; K-cacodylate pH 7.4; 0.2 μM DNA, 1 μM compound; SD ≤ 0.2.

In test [4] the test system is WI-38 (lung fibroblast). Kind of test: SRB short-term cytotoxicity assay, WI-38. As to conditions: Homo sapiens, 96 h. The class given is cell-based. How it is done:
as §1, §2, §3, §4
All incubations were carried out at room temperature except for TCA fixation, which was at 4 °C. The IC50 value, the concentration required to inhibit cell growth by 50%, was determined from the mean absorbance at 540 nm for each drug concentration expressed as a percentage of the control untreated well absorbance. (Performed at School of Pharmacy, University College of London). […]
(#sc-30/sc-126; Santa Cruz Biotechnology Inc., Santa Cruz, CA, USA). […]

Test [5] concerns KRAS21R (DNA, G4) AGGGCGGTGTGGGAAGAGGGA
Kind of test: spectrofluorimetric titration, one-site Hill slope fit. As to conditions: 60 mM K+, K-cacodylate pH 7.4, 25 °C, 1 μM compound, apparent, SD ≤ 0.2 × 10^6.

The term IC50 denotes the concentration needed to halve the response being measured.

Where two headings read alike, the source gives them in different places.

`Cn1cc2c3ccccc3nc-2c2cc(Br)ccc21` [2a, 2-bromo-5-methyl-indolo[3,2-c]quinoline]: the IC50 in test [1] (MTS assay) stood at 300 nM; in test [2] it was 2880 nM; in test [4] it was 6.26 µM. Besides, the binding entry in test [3] is “weak”.
Regarding `CCN(CC)CCCNc1ccc2c(c1)c1[nH]c3ccccc3c1c[n+]2C` [2d], the 50% inhibitory concentration (IC50) in test [1] (MTS assay) came out at 640 nM; in test [2] it was 2400 nM; in test [4], 4.86 µM. The Ka in test [5] (Hill 2.0) is 4.4e+06 M⁻¹.
Consider `C[n+]1ccc(-c2c3nc(c(-c4cc[n+](C)cc4)c4ccc([nH]4)c(-c4cc[n+](C)cc4)c4ccc([nH]4)c(-c4cc[n+](C)cc4)c4nc2C=C4)C=C3)cc1` [TMPyP4, reference compound], for which the IC50 in test [1] was 2970 nM.
As for `CCN(CC)CCCNc1ccc2[nH]c3c(c[n+](C)c4ccc(NCCCN(CC)CC)cc34)c2c1.[Cl-]` [3d], the IC50 in test [1] (MTS assay) amounted to 6570 nM.
Take `CCN(CC)CCCNc1ccc2c(c1)[nH]c1c2c[n+](C)c2ccc(NCCCN(CC)CC)cc12.[Cl-]` [3e]: the IC50 is 3120 nM in test [1] (MTS assay), 11400 nM in test [2] and 10.1 µM in test [4]. Further, the binding entry in test [3] is listed as “yes”. Also, the Ka in test [5] (Hill 2.4) was 8.6e+06 M⁻¹.
